Laboratory results taken from patent publication US10968183B2, “Small molecule FIEL1 inhibitor in inflammatory and fibrotic lung injury” (UNIVERSITY OF PITTSBURGH—OF THE COMMONWEALTH SYSTEM OF …, priority 2015, dated 2021).

Tested on: bleomycin-induced lung injury in C57BL/6J mice
Assay: Bleomycin lung fibrosis model in mice
Assay type: in vivo
Settings: estimated 5 mg/kg/d; for lung (pulmonary) fibrosis: 7-21 days
Protocol: FIG. 7A. […] FIG. 7B. Structures of the BC-1480 backbone and lead compound BC-1485. FIG. 7C. FIEL1 protein was HIS-purified from FIEL1 expression in 293T cells using cobalt beads. Beads were then extensively washed prior to exposure to BC-1480 or BC-1485 at different concentrations (10^−4 to 100 μM). Purified PIAS4 protein was then incubated with drug-bound FIEL1 beads overnight. Beads were washed, and proteins were eluted and resolved on SDS-PAGE. The relative amounts of PIAS4 detected in the pull-downs was normalized to loading and quantified (n=2). FIG. 7D. MLE cells were exposed to BC-1480 or BC-1485 at various concentrations for 18 h. Cells were then collected and immunoblotted. FIGS. 7E-J. C57BL/6J mice were administered with bleomycin (0.05 U) for 7-21 days. Compounds BC-1480 and BC-1485 were given to mice through drinking water with an estimated dose of 5 mg/kg/d. Mice were euthanized, and lungs were lavaged with saline, harvested, and then homogenized. Lavage proteins, CXCL1, and total cell count were measured in FIGS. 7E-G. H. Survival studies of mice that were given bleomycin and compound treatments. Mice were carefully monitored over time; moribund, preterminal animals were immediately euthanized and recorded as deceased. Kaplan-Meier survival curves were generated using SPSS software (p<0.01 compared to Vehicle). Vehicle: n=24, BC-1480: n=13, BC-1485: n=12. FIG. 7I. Hydroxyproline contents were measured in lungs from 7, 14, and 21d after bleomycin challenge. FIG. 7J. Trichrome staining was performed on lung samples from E. Original magnification, ×10. *p<0.05 compared to Vehicle (t-test). Data are an average of two experiments (FIGS. 7E-J, 4-8 mice/group)
C57BL/6J mice were administered i.t. with bleomycin (0.05 U) for 7-21 days. Compounds BC-1480 and BC-1485 were given to mice through drinking water with an estimated dose of 5 mg/kg/d. Mice were then euthanized, and lungs were lavaged with saline, harvested, and then homogenized. Lavage IL-6 was measured in (FIG. 16A). Lavage cells were also processed for Wright-Giemsa stain; Lavage macrophages, neutrophils and lymphocytes were counted and graphed (FIGS. 16B-16D). H&E staining was performed on lung samples from A. Original magnification, ×10. *p<0.05 compared to Vehicle (t test). Data are an average of two experiments (A-E, 4-8 mice/group).
Murine lungs were dried and weighed prior to digestion with HCl. Hydroxyproline concentrations were measuring using methods previously described in Kesava Reddy et al., Clinical Biochemistry, 29(3): 225-229 (1996), and Neuman et al., J. of Biol. Chem., 184(1): 299-306 (1950). Hydroxyproline content was normalized to dry lung weight.
All procedures were approved by the University of Pittsburgh Institutional Animal Care and Use Committee. For fibrosis studies, male C57BL/6J mice were deeply anesthetized using a ketamine/xylazine mixture, and the larynx was well visualized under a fiber optic light source before endotracheal intubation with a 3/400 24-gauge plastic catheter. 10^7 CFU of lentivirus encoding genes for Empty (E), FIEL1, CON shRNA, or KIAA0317 shRNA was given i.t. for 144 h before administration of bleomycin (0.02 U˜0.05 U i.t.) for up to 21 days. Animals were euthanized and assayed for BAL protein, cell count, cytokines, and lung infiltrates. Survival studies were performed on mice that were given bleomycin (0.02 U˜0.05 U i.t.). Mice were carefully monitored over time; moribund, preterminal animals were immediately euthanized and recorded as deceased. For drug studies, mice were deeply anesthetized as above. Bleomycin (0.05 U i.t.) was given i.t. before BC-1480 or BC-1485 (5 mg/kg/d) was administered to the mice through their drinking water. 7-21d later, animals were euthanized and analyzed as above.

[1] = bleomycin 0.05 U i.t., up to 21 days, drinking water

CC(NC(=O)c1ccc(NS(=O)(=O)c2ccc3[nH]c(=O)[nH]c3c2)cc1)C(=O)N(C)C (stereo not shown) [BC-1485]
lung hydroxyproline content (7, 14 and 21 d after bleomycin): significant decrease | lung (pulmonary) fibrosis (bleomycin 0.05 U i.t.): marked decrease | lung (pulmonary) fibrosis (bleomycin 0.05 U i.t., listed as BC 1485): inhibition of pulmonary fibrosis | BAL CXCL1 levels [1]: significantly decreased | BAL IL-6 levels [1]: significantly decreased | BAL protein concentrations [1]: significantly decreased | BAL total cell counts [1]: significantly decreased | survival (bleomycin 0.05 U i.t., drinking water): significantly improved | lung collagen (Mason Trichrome staining) (bleomycin 0.05 U i.t.): Decreased | peribronchiolar and parenchymal fibrosis (H&E) (bleomycin 0.05 U i.t.): substantially decreased
